Calls of active or inactive are those of the source.
How the values were obtained:
[1] = TRPM1 promoter luciferase reporter signal decrease, dose response, MITF inhibitor project, cell-based, SK-MEL-5, dry powder, set 8 (AID 624430); format: functional
[2] = MITF: Counter assay: A375 proliferation Measured in Cell-Based System Using Plate Reader - 2084-03_Inhibitor_Dose_DryPowder_Activity_Set8.; format: functional; settings: A-375
[3] = SK-MEL-5 parental cell viability reduction, dose response, orthogonal assay for MITF inhibitor project, CellTiter-Glo luminescence, dry powder, set 8 (AID 651586); format: functional, cell-based
[4] = TRPM1 promoter luciferase reporter signal decrease, dose response, MITF inhibitor project, cell-based, SK-MEL-5, dry powder, set 9 (AID 651588); format: functional
[5] = A375 melanoma cell viability loss, dose response, counter-screen for MITF modulator project, CellTiter-Glo luminescence, dry powder, set 9 (AID 651591); format: functional, cell-based; settings: A-375
[6] = MITF Orthogonal Assay: MALME3 CTG Assay Measured in Cell-Based System Using Plate Reader - 2084-04_Inhibitor_Dose_DryPowder_Activity_Set6.; format: functional; settings: MALME-3
[7] = MITF Orthogonal Assay: SK-MEL-5 CTG Assay Measured in Cell-Based System Using Plate Reader - 2084-02_Inhibitor_Dose_DryPowder_Activity_Set7.; format: functional
[8] = MALME3 melanoma cell viability reduction, dose response, orthogonal assay for MITF inhibitor project, CellTiter-Glo luminescence, dry powder, set 5 (AID 651584); format: functional, cell-based; settings: MALME-3
Protein Tat = Protein Tat (Human immunodeficiency virus type 1 group M subtype B (isolate HXB2)(HIV-1), UniProt P04608); format: functional;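 note: tat binding to TAR RNA read out by fluorescence polarization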
[9] = cytotoxicity toward Colo320 cells – cell-based, CellTiter-Glo luminescence, IC50, dose response (AID 1117334); format: functional; settings: COLO 320
[10] = cytotoxicity toward HT-29 cells – cell-based, CellTiter-Glo luminescence, IC50, dose response (AID 1117330); format: functional
[11] = Concentration-dependent survival of SW480 colon cancer line, luminescence detection with CellTiter-Glo, half-maximal inhibitory concentration (AID 1117338); format: functional
[12] = RKO cell viability reduction, dose response, CellTiter-Glo luminescence (AID 1117322); format: functional
[13] = cytotoxicity toward HCT116 cells – cell-based, CellTiter-Glo luminescence, IC50, dose response (AID 1117332); format: functional; settings: HCT-116
[14] = CellTiter-Glo luminescent dose response of DLD-1 viability loss (AID 1117352); format: functional
[15] = SNU-C1 cell viability reduction, dose response, CellTiter-Glo luminescence (AID 1117323); format: functional, cell-based
[16] = HCT116 cell viability decrease, GSK3B pretreatment – CellTiter-Glo, IC50, dose response (AID 1117339); format: functional; settings: HCT-116

Chain of Protein Tat (P04608 whole entry): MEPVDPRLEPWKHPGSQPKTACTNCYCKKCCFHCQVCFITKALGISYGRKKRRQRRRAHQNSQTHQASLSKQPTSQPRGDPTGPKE

With `O=C1C(Nc2ccc(Br)cc2)=C(N2CCCCC2)C(=O)c2ccccc21` the AC50 [1] was 4.44 µM (active), the AC50 [2] was 47.2 µM (active) and the AC50 [3] was > 70 µM (inactive). The AC50 [4] was 15.3 µM (active), the AC50 [5] was 32.8 µM (active) and the AC50 [6] was 15.7 µM (active). The AC50 [7] was 4.57 µM (active) and the AC50 [8] was 15.7 µM (active).

With `CCSC1=C(C#N)C(c2cccs2)/C(=C(\O)OC)C(C)=N1` (configuration not stated) the IC50 (Protein Tat) was > 100 µM (active).

With `CSc1ccc2c(c1)N(CCC1CCCCN1C)c1ccccc1S2` (configuration not stated) [THIORIDAZINE] the IC50 [9] was 7.92 µM (inactive), the IC50 [10] was 5.9 µM (inactive) and the IC50 [11] was 3.71 µM (active). The IC50 [12] was 5.49 µM (inactive), the IC50 [13] was > 20 µM (inactive) and the IC50 [14] was > 20 µM (inactive). For the same compound, the IC50 [15] was 2.9 µM (active) and the IC50 [16] was 8.11 µM (inactive).
